For 52 compounds, melting point results are on record in patent US7662826B2, “Pyrazolo [1,5-a] pyrimidine derivative and nad (p) h oxidase inhibitor containing the same” (Shionogi & Co., Ltd., priority 2002, dated 2010).

Usually melting point stands for the temperature of the solid-liquid transition.

For the compound `O=C1CCN(c2ccccc2NC(=O)c2cnc3c(-c4cccc(Cl)c4)cnn3c2)CC1` [Compound B1], the melting point was found to be 212 °C. Turning to `CNC1CCN(c2ccccc2NC(=O)c2cnc3c(-c4cccc(Cl)c4)cnn3c2)CC1` [Compound B3], the melting point is 215 to 217 °C. For `CCNC1CCN(c2ccccc2NC(=O)c2cnc3c(-c4cccc(Cl)c4)cnn3c2)CC1` [Compound B5], the melting point fell in the range of 193 to 195 °C. Compound `CCCNC1CCN(c2ccccc2NC(=O)c2cnc3c(-c4cccc(Cl)c4)cnn3c2)CC1` [Compound B6] returned a melting point of 187 to 189 °C. In turn, `CCCCNC1CCN(c2ccccc2NC(=O)c2cnc3c(-c4cccc(Cl)c4)cnn3c2)CC1` [Compound B8] showed a melting point of 191 to 192 °C. In the case of `CC(C)NC1CCN(c2ccccc2NC(=O)c2cnc3c(-c4cccc(Cl)c4)cnn3c2)CC1` [Compound B9] it was 206 to 208 °C; in that of `CCC(C)NC1CCN(c2ccccc2NC(=O)c2cnc3c(-c4cccc(Cl)c4)cnn3c2)CC1` (stereo not shown) [Compound B11], 202 to 204 °C. In the case of `CNC1CCN(c2ccccc2NC(=O)c2cnc3c(-c4ccc(Cl)cc4)cnn3c2)CC1` [Compound B16] it was 226 to 228 °C. In the case of `CCNC1CCN(c2ccccc2NC(=O)c2cnc3c(-c4ccc(Cl)cc4)cnn3c2)CC1` [Compound B17] it was 234 to 236 °C. In turn, `CC(C)NC1CCN(c2ccccc2NC(=O)c2cnc3c(-c4ccc(Cl)cc4)cnn3c2)CC1` [Compound B18] came in with a melting point of 246 to 247 °C.

For the compound `CCCNC1CCN(c2ccccc2NC(=O)c2cnc3c(-c4ccc(Cl)cc4)cnn3c2)CC1` [Compound B19], the melting point is 235 to 237 °C. For the compound `C=CCNC1CCN(c2ccccc2NC(=O)c2cnc3c(-c4ccc(Cl)cc4)cnn3c2)CC1` [Compound B20], the melting point lay within 229 to 230 °C. In the case of `CCCCNC1CCN(c2ccccc2NC(=O)c2cnc3c(-c4ccc(Cl)cc4)cnn3c2)CC1` [Compound B23] it was 222 to 224 °C; in that of `O=C(Nc1ccccc1N1CCC(O)CC1)c1cnc2c(-c3ccc(Cl)cc3)cnn2c1` [Compound B24], 256 to 261 °C. The result for `O=C(Nc1ccccc1N1CCC[C@H]1CNCCO)c1cnc2c(-c3ccc(Cl)cc3)cnn2c1` [Compound B25] reads 134 to 136 °C. In the case of `N[C@@H]1CCN(c2ccccc2NC(=O)c2cnc3c(-c4ccc(Cl)cc4)cnn3c2)C1` [Compound B28] it was 184 to 186 °C; in that of `NC[C@@H]1CCCN1c1ccccc1NC(=O)c1cnc2c(-c3ccc(Cl)cc3)cnn2c1` [Compound B30], 203 to 204 °C; in that of `CNC1CCN(c2ccccc2NC(=O)Nc2cnc3c(-c4ccc(Cl)cc4)cnn3c2)CC1` [Compound B36], 137 to 140 °C. For the compound `CCNC1CCN(c2ccccc2NC(=O)Nc2cnc3c(-c4ccc(Cl)cc4)cnn3c2)CC1` [Compound B38], the melting point fell in the range of 155 to 157 °C. In the case of `O=C(NCc1ccccc1N1CCNCC1)Nc1cnc2c(-c3cccc(Cl)c3)cnn2c1` [Compound B40] it was 196 to 197 °C; in that of `CCCNC1CCN(c2ccccc2NC(=O)Nc2cnc3c(-c4ccc(Cl)cc4)cnn3c2)CC1` [Compound B41], 151 to 153 °C. In the case of `C=CCNC1CCN(c2ccccc2NC(=O)Nc2cnc3c(-c4ccc(Cl)cc4)cnn3c2)CC1` [Compound B43] it was 152 to 153 °C; in that of `CNC1CCN(c2ccccc2NC(=O)Nc2cnc3c(-c4cccc(Cl)c4)cnn3c2)CC1` [Compound B55], 117 to 128 °C (dec.). For `CCNC1CCN(c2ccccc2NC(=O)Nc2cnc3c(-c4cccc(Cl)c4)cnn3c2)CC1` [Compound B58], the melting point is 157 to 159 °C (dec.).

Turning to `C=CCNC1CCN(c2ccccc2NC(=O)Nc2cnc3c(-c4cccc(Cl)c4)cnn3c2)CC1` [Compound B59], the melting point was 150 to 154 °C (dec.). The compound `O=C(Nc1cnc2c(-c3cccc(Cl)c3)cnn2c1)c1ccccc1N1CCNCC1` [Compound B165] displayed a melting point of 269 to 271 °C. The result for `O=C(Nc1ccccc1N1CC[C@@H](NCCO)C1)c1ccn2ncc(-c3cccc(Cl)c3)c2n1` [Compound B170] reads 125 to 127 °C. `O=C(Nc1ccccc1N1CC[C@H](NCCO)C1)c1ccn2ncc(-c3cccc(Cl)c3)c2n1` [Compound B171] displayed a melting point of 124 to 125 °C. In turn, `NCCN[C@@H]1CCN(c2ccccc2NC(=O)c2ccn3ncc(-c4cccc(Cl)c4)c3n2)C1.O=C(O)/C=C/C(=O)O` [Compound B172] registered a melting point of 151 to 152 °C. `NCCN[C@H]1CCN(c2ccccc2NC(=O)c2ccn3ncc(-c4cccc(Cl)c4)c3n2)C1` [Compound B173] returned a melting point of 160 to 162 °C. For `NC[C@H]1CCCN1c1ccccc1NC(=O)c1ccn2ncc(-c3cccc(Cl)c3)c2n1` [Compound B196], the melting point is 168 to 170 °C. In the case of `O=C(Nc1ccccc1N1CCC[C@@H]1CNCCO)c1ccn2ncc(-c3cccc(Cl)c3)c2n1` [Compound B198] it was 118 to 121 °C; in that of `CCCNC1CCN(c2ccccc2NC(=O)Nc2cnc3c(-c4cccc(Cl)c4)cnn3c2)CC1` [Compound B199], 152 to 155 °C. The compound `CC(C)NC1CCN(c2ccccc2NC(=O)Nc2cnc3c(-c4ccc(Cl)cc4)cnn3c2)CC1` [Compound B203] yielded a melting point of over 300 °C. Compound `CNC[C@H]1CCCN1c1ccccc1NC(=O)c1ccn2ncc(-c3cccc(Cl)c3)c2n1` [Compound B215] registered a melting point of 97 to 98 °C. Turning to `O=C(Nc1cnc2c(-c3ccc(Cl)cc3)cnn2c1)Nc1ccccc1N1CCNCC1` [Compound B218], the melting point lay in the range of 183 to 184 °C.

As to `CCC(C)NC1CCN(c2ccccc2NC(=O)c2cnc3c(-c4ccc(Cl)cc4)cnn3c2)CC1` (stereo not shown) [Compound B243], the melting point lay in the range of 229 to 231 °C. For `O=C(Nc1ccccc1N1CC[C@@H](NCCO)C1)c1cnc2c(-c3ccc(Cl)cc3)cnn2c1` [Compound B245], the melting point was in the range of 164 to 165 °C. The result for `O=C(Nc1cnc2c(-c3cccc(Cl)c3)cnn2c1)Nc1ccccc1N1CCNCC1` [Compound B249] reads 120 to 140 °C; that for `O=C(NCc1ccccc1N1CCNCC1)Nc1cnc2c(-c3ccc(Cl)cc3)cnn2c1` [Compound B263], 185 to 187 °C.

With `O=C(Nc1cnc2c(-c3ccc(Cl)cc3)cnn2c1)c1ccccc1N1CCNCC1` [Compound B277], the melting point was in the range of 236 to 238 °C. Take `O=C(Nc1ccc(N2CCNCC2)cc1)c1cnc2c(-c3ccc(Cl)cc3)cnn2c1` [Compound B280]: the melting point is 267 to 269 °C (dec.). `Clc1cccc(-c2cnn3ccc(/C4=N/c5ccccc5N5CCCCC5CN4)nc23)c1` (stereo not shown) [Compound B292] displayed a melting point of 190 to 191 °C. The compound `CCCCNC1CCN(c2ccccc2NC(=O)Nc2cnc3c(-c4ccc(Cl)cc4)cnn3c2)CC1` [Compound B293] showed a melting point of 138 to 143 °C. For the compound `NCCC1CCCCN1c1ccccc1NC(=O)c1ccn2ncc(-c3cccc(Cl)c3)c2n1.O=C(O)/C=C/C(=O)O` (stereo not shown) [Compound B313], the melting point fell in the range of 211 to 212 °C. In the case of `COc1ccc(NC(=O)c2ccn3ncc(-c4cccc(Cl)c4)c3n2)cc1N1CCNCC1` [Compound B314] it was 100 to 102 °C (dec.).

As to `NCC1CCCCN1c1ccccc1NC(=O)c1ccn2ncc(-c3cccc(Cl)c3)c2n1` (stereo not shown) [Compound B316], the melting point fell in the range of 159 to 160 °C.

For the compound `COc1ccc(NC(=O)c2ccn3ncc(-c4ccc(Cl)cc4)c3n2)cc1N1CCNCC1` [Compound B317], the melting point lay in the range of 210 to 212 °C. Regarding `NC[C@H]1CCCN1c1ccccc1NC(=O)c1ccn2ncc(-c3ccc(Cl)cc3)c2n1` [Compound B318], the melting point was in the range of 186 to 188 °C.

`CCCNC1CCN(c2ccccc2NC(=O)C2=CNc3c(-c4ccc(Cl)cc4)cnn3C2)CC1` [Compound B319] came in with a melting point of 216 to 217 °C. In the case of `CCC(C)NC1CCN(c2ccccc2NC(=O)Nc2cnc3c(-c4ccc(Cl)cc4)cnn3c2)CC1` (stereo not shown) [Compound B336] it was over 300 °C; in that of `O=C(NCc1ccccc1N1CCOCC1)c1ccn2nc(-c3ccccc3)cc2n1` [Example 12, N-(2-morpholinophenyl)methyl 2-phenyl-pyrazolo-[1,5-a]-pyrimidine-5-amide], 190 to 192 °C.
